Reference: patent US9416151B2, “Use of glycyrrhetinic acid, glycyrrhizic acid and related compounds for prevention and/or treatment of pulmonary fibrosis” (priority 2010, dated 2016)
“Also recorded” adds a separate entry of the source.

Columns and labels:
[1] = system: mice with IR-induced pneumonitis; experiment: Lung morphology, plasma exudation and inflammatory cell infiltration, acute phase of IR-induced pneumonitis; format: in vivo, C57BL/6 fibrosis-prone mice; conditions: 2.5 days after thoracic IR 15 Gy
Protocol: (§1) Briefly, C57BL/6 fibrosis-prone mice received a single-dose of thoracic IR at 15 Gy with a dose rate of 1.9 Gy/min. Six hours after IR exposure, the mice were divided into the following treatment groups: 1) normal (received 0 Gy; no treatment); 2) vehicle-treated; 3) GA-treated (30-40 mg/kg/q.o.d) (i.e. every other day) (the GA dosage used herein was derived from the effective dosage for humans (3-4 mg/kg), which is typically 6-10 times lower than that of mice); 4) dexamethasone-treated (Positive Control 1) (Dex, 3 mg/kg, i.m. or p.o. qod); 5) amifostine-treated (Positive Control 2) (Ami, 200 mg/kg/ i.v, 0.5 hr prior to irradiation); and 6) celebrex-treated (Positive Control 3) (30 mg/kg, po, qod).
Briefly, C57BL/6 fibrosis-prone mice received a single-dose of thoracic IR at 15 Gy with a dose rate of 1.9 Gy/min and were treated as described in Example 2. The mice were sacrificed 2.5 days after IR exposure, and lung tissues were harvested and analyzed for morphological changes.

[2] = system: inflammatory mediators (IMs), including IL1a, TNFa, PF4 and VCAM-1; experiment: Inflammatory mediators in lung homogenates by ELISA, acute phase of IR-induced pneumonitis; format: in vivo, C57BL/6 fibrosis-prone mice; conditions: 2.5 days after thoracic IR 15 Gy; treatment from 6 h after IR; vs vehicle, p<0.05
Protocol: as §1
The mice were sacrificed 2.5 days after IR exposure, and fresh lung tissue homogenates were prepared using lysis buffer mixed with protenase inhibitor cocktails. After protein concentration was adjusted to 1 mg/ml, the fresh lung homogenates were added to ELISA plates at a concentration of 100 μl/well. The levels of inflammatory mediators were measured by ELISA.

[3] = system: mice with IR-induced pulmonary fibrosis; experiment: Lung density by cone beam CT scan (CBCT); format: in vivo; conditions: for lung density (abnormal increase): 7.5 months after IR 15 Gy, P<0.05
Protocol: To assess effects of GA on lung density, cone beam CT scan (CBCT) of mouse lungs was performed. CBCT provides a complete 3D 650×650×428 scan (i.e. 428 slices) of the lungs with isotropic resolution at 270 μm (central slice shown in FIG. 11) in 30 seconds. The scanner achieves a CT density sensitivity of ˜[…], and thus, changes in lung density can be discerned. The CBCT imaging data were further analyzed using MATLAB software. The lungs were automatically segmented (FIG. 12A) and a 3D image was generated for each mouse lung (FIG. 12B). To reduce the effect of cardiac motion on the mean value of lung density, boundaries of the lungs were not used for analysis. A histogram of voxel intensity (pulmonary tissue density) of each mouse was created (FIG. 13).

[4] = Toxicity of long-term use: activity, fur morphology, body weight; format: in vivo
[5] = system: ACTH (adrenocorticotropic hormone); growth hormone (GH); conditions: in vivo
Protocol: The chemical structure of GA is similar to that of cortisol. Thus, this Example investigates whether the long-term use of GA would affect the production of cortisol and cause side effects. The plasma levels of ACTH (adrenocorticotropic hormone), a […], were measured using ELISA at Weeks 6, 7, and 10 after GA-treatments (40 mg/kg, god, p.o).
In addition, plasma levels of growth hormone (GH) were measured using ELISA at Weeks 6, 7, and 10 after GA treatments.

pulmonary fibrosis = experiment: Inventors' observation on dexamethasone in pulmonary fibrosis; format: in vivo; conditions: compared to non-treated controls
[6] = system: mice with IR-induced pneumonitis; experiment: Sub-acute phase of IR-induced pneumonitis: lung tissue and BALF assays; format: in vivo, C57BL/6 fibrosis-prone mice
Protocol: as §1
Briefly, C57BL/6 fibrosis-prone mice received a thoracic IR and were treated as described in Example 2. The mice were sacrificed 17 days after IR exposure, and lung tissues were harvested. Bronchoalveolar lavage fluid (BALF) assays were performed.

[7] = system: mice with IR-induced pulmonary fibrosis; experiment: Lung histology (H&E, trichrome), hydroxyproline and TGFβ in IR-induced fibrosis; format: in vivo
Protocol: Briefly, mice treated with GA (40 mg/kg/q.o.d.) for 3 months were sacrificed 7 months after IR exposure at 15 Gy, and lung tissue specimens were stained using hematoxylin and eosin (H&E) stain.
To assess whether GA reduces abnormal collagen deposition in lungs, lung tissue specimen was stained with collagen-binding trichrome blue dye.
The reduction of collagen deposition was further analyzed by measuring the levels of hydroxyproline, a key component of collagen.

[8] = system: mice with IR-induced pulmonary fibrosis; experiment: Lung compliance (plethysmograph pressure-volume measurements); format: in vivo; conditions: 6.5 months after IR 15 Gy; P<0.05
Protocol: To assess the effects of GA on lung compliance, mice were anesthetized and their trachea were surgically exposed and incised. An 18-gauge, 1 cm stainless steel tube was inserted into the trachea and secured with surgical sutures. The respiratory rate and tidal volume of the mice were measured by a Harvard rodent ventilator. The average respiratory rate was 150 breaths per minute and the tidal volume was adjusted according to the weight (0.01 ml per gram body weight). The mice were then placed in a plethysmograph for pressure-volume measurements.

[9] = system: IL1a, TNFa, lymphotactin and p-selectin; experiment: Inflammatory mediators, sub-acute phase, GA administered 24 hours after IR exposure; format: in vivo, mice; conditions: GA given 24 hours after thoracic IR at 5, 10 and 15 Gy
Protocol: The administration of GA 24 hours after IR exposure can effectively block the surge in inflammatory responses.

[10] = system: mice with IR-induced pulmonary fibrosis; experiment: Respiratory rate in IR-induced pulmonary fibrosis (ventilator with pressure plethysmograph); format: in vivo
Protocol: Mice exposed to thoracic IR develops pulmonary fibrosis 6 months after IR exposure at 18 Gy, 8 months after IR exposure at 15 Gy, and 10 months after IR exposure at 12.5 Gy. To access the treatment effects of GA on lung fibrosis and lung function, the respiratory rate, lung density, and lung compliance of the mice were determined.
To assess improvement on respiratory function, mice exposed to thoracic IR at 15 Gy were treated with GA (30-40 mg/kg) q.o.d. or twice/week for 3 months. Mouse respiratory rate was measured using a Harvard rodent ventilator connected to a pressure plethysmograph.

SP-D and IL1a = experiment: Plasma levels of SP-D and IL1a, acute phase of IR-induced pneumonitis; format: in vivo, C57BL/6 fibrosis-prone mice; conditions: 2.5 days after thoracic IR; P<0.05
Protocol: as §1
IR damages lung epithelium and endothelium cells, and causes dysfunction of tight junction, increased cellular permeability, and the loss of integrity of the alveolar-capillary barrier. As a result, SP-D and IL1a abnormally enter into the blood from inflamed pulmonary tissue, leading to elevated plasma levels of SP-D and IL1a.
In this Example, C57BL/6 fibrosis-prone mice received a single-dose of thoracic IR at 15 Gy with a dose rate of 1.9 Gy/min and were treated as described in Example 2. The mice were sacrificed 2.5 days after IR exposure, and plasma levels of SP-D and IL1a were measured.

IR-induced pneumonitis = experiment: GLA tablets in a lung cancer patient receiving 2nd IR treatment; format: in vivo; conditions: one patient
Protocol: In collaboration with radiation oncologists at the First Affiliated Hospital of Fujian Medical School in China, GLA tablets (produced by Minophagen Co. in Japan and available in pharmacies in China) were administered to a patient who received their 2nd IR treatment for lung cancer. […] To control the progression of pneumonitis, they received dexamethasone treatment. Due to tumor re-growth 9 months after their 1st IR treatment, they received a 2nd IR treatment with warnings that IR may worsen pneumonitis.
In order to mitigate IR-induced lung injury, GLA was administered at a does of 150 mg per day (equivalent to GA about 85 mg per day) starting from the date of 2nd treatment for 3 months. The result was unexpectedly surprising.

NCCCNCCSP(=O)(O)O [amifostine, reference compound]
plasma exudation and inflammatory cell infiltration into the interstitial space [1]: produced similar treatment effects | levels of inflammatory mediators (IL1a, TNFa, PF4, VCAM-1) in lung homogenates [2]: extent of inhibition by GA was comparable

Cc1ccc(-c2cc(C(F)(F)F)nn2-c2ccc(S(N)(=O)=O)cc2)cc1 [celebrex, reference compound]
lung density (abnormal increase) [3]: reduction in lung density by GA is more potent that of celebrex | plasma exudation and inflammatory cell infiltration into the interstitial space [1]: produced similar treatment effects | body weight ([4]; 7.5 months post IR 15 Gy, vehicle-treated mice lost 6-7 g): less severe loss of BW | levels of inflammatory mediators (IL1a, TNFa, PF4, VCAM-1) in lung homogenates [2]: extent of inhibition by GA was comparable

C[C@@H]1C[C@H]2[C@@H]3CCC4=CC(=O)C=C[C@]4(C)[C@@]3(F)[C@@H](O)C[C@]2(C)[C@@]1(O)C(=O)CO [dexamethasone, reference compound]
plasma growth hormone (GH) level [5]: increased | reduction in plasma ACTH levels [5]: 10-50 fold | course of pulmonary fibrosis and survival (pulmonary fibrosis): may result in worsening of pulmonary fibrosis, leading to lung failure or even earlier death

glycyrrhetinic acid [GA]
infiltration of neutrophils into the interstitial fluid (lung tissue) ([6]; 17 days after IR 15 Gy): suppression of infiltration of neutrophils; also recorded: mitigates the sub-acute phase of IR-induced pneumonitis | myeloperoxidase (MPO) activity in BALF ([6]; 17 days after IR 15 Gy, P<0.05): reduces | neutrophils infiltrated into bronchoalveolar lavage fluid ([6]; 17 days after IR 15 Gy, P<0.05): reduced; also recorded: reduces the number of neutrophils | levels of lymphotactin and p-selectin ([6]; 17 days after IR exposure, P<0.05): reduced; also recorded: reduces the levels of inflammatory mediators | lung morphology (H&E stain) ([7]; GA 40 mg/kg/q.o.d. for 3 months, 7 months after IR 15 Gy): near-normal morphology; also recorded: mitigates IR-induced pulmonary fibrosis | collagen deposition (trichrome blue dye) ([7]; IR-exposed mice): reduces collagen deposition; also recorded: mitigates IR-induced lung fibrosis | level of TGFβ ([7]; IR-exposed mice): reduced | hydroxyproline levels in the lungs ([7]; vs IR + vehicle control, P<0.05): reduced; also recorded: reduces collagen deposition | Mean Density (lung density) ([3]; 1 year post IR exposure at 18 Gy, normal control −454, IR without treatment −364): −458 HU | lung density (abnormal increase) [3]: significantly reduced; also recorded: reduces lung density | lung compliance [8]: potently, and mostly effectively, enhanced | levels of IL1a, TNFa, lymphotactin and p-selectin [9]: potently reduced; also recorded: inhibits inflammatory responses | plasma exudation and inflammatory cell infiltration into the interstitial space [1]: potently suppressed; also recorded: reduces inflammatory cell infiltration and plasma exudation | respiratory rate ([10]; 5 months after IR 18 Gy): reduction of respiratory rate | respiratory rate ([10]; 7 months after IR 15 Gy, GA 30-40 mg/kg q.o.d. or twice/week for 3 months, P<0.05): effectively reduced; also recorded: reduction of respiratory rate | death during treatment ([4]; long-term GA treatment): No mouse died | side effects (activity, fur morphology, body weight) ([4]; long-term use): little side effects | plasma growth hormone (GH) level [5]: increased | plasma ACTH levels ([5]; 40 mg/kg): rapidly returned to normal | plasma levels of IL1a (SP-D and IL1a): effectively reduced; also recorded: reduces plasma levels of SP-D and ILa | plasma levels of SP-D (SP-D and IL1a): effectively reduced; also recorded: reduces plasma levels of SP-D | levels of inflammatory mediators (IL1a, TNFa, PF4, VCAM-1) in lung homogenates [2]: effectively reduced levels of IMs; also recorded: inhibition effects

glycyrrhizic acid [GLA]
symptoms of pneumonitis or fibrosis (IR-induced pneumonitis; 150 mg per day for 3 months from 2nd IR treatment): did not exhibit any symptom of pneumonitis or fibrosis; also recorded: mitigates pneumonitis | lung density (CT) (IR-induced pneumonitis; CT of 1st vs 2nd IR treatment): significantly reduced
